What all share (assay): growth of human tumour cells (NCI), 48 h
For test [1], the system named is HCT-116 colon.
Test [2] has as its system MOLT-4 leukemia.
The subject of test [3] is SN12C renal.
The test system of test [4] is U251 CNS.
Test [5] has as its system A549 NSCLC.
The test system of test [6] is A498 renal.
The subject of test [7] is MALME-3M melanoma.
The subject of test [8] is HOP-62 NSCLC.
Test [9] deals with MDA-MB-435.
In test [10] the test system is T-47D breast.

Where “and” joins values, the source holds several entries; their conditions need not be identical. Equal entries are not always repeated.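 Five concentrations, 48 hours, 96-well plates. GI50 = concentration required for 50% inhibition of growth. Definition used: TGI = concentration required for complete inhibition of growth.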 Bounds are passed on as bounds.

Regarding `O=C1/C(=C/c2ccccc2)CN(C(=O)Oc2ccc([N+](=O)[O-])cc2)C/C1=C\c1ccccc1`, the GI50 in test [1] was 0.303 µM; in test [2] it was 1.21 µM; in test [3], 3.45 µM; in test [4], 1.56 µM. The TGI in [1] was 1.65 µM and 1.08 µM; in [2], 4.83 µM and 4.45 µM; in test [3], 7.62 µM; in [4] it was 4.2 µM and 3.31 µM.
Regarding `CCOC(=O)NNC(=O)NC12CC3CC(CC(C3)C1)C2`, the TGI in test [1], in test [2], in test [3], in [5], in test [6] and in test [7] was above 100 µM throughout. Also, the TGI in [4] and in test [8] was above 100 µM throughout.
On to `O=C1CC2Sc3ccccc3N=C2N1c1ccc(Cl)cc1Cl` (stereo not drawn), for which the TGI in test [1], in test [2], in [3], in [5], in test [7] and in [4] was above 100 µM throughout. This compound gave a TGI in test [8] above 100 µM.
Regarding `CC(=O)Nc1ccc(-n2cnc3cc(-c4ccc(OCCN5CCCCC5)cc4)ccc32)cc1`, the GI50 was 5.81 µM in [9]; 0.667 µM in test [1]; 5.71 µM in [2]; 6.34 µM in test [10]; 4.48 µM in [3]; 1.4 µM in [5]. Besides, the figures for the GI50 in test [7], in [4] and in [8] were 2.46 µM, 4.16 µM and 5.08 µM, respectively. Moreover, the TGI in test [9] was found to be 10.4 µM; in [1], 1.3 µM; in [2], 25 µM; in [10], 17.2 µM; in test [3] it was 9.72 µM; in [5] it was 5.74 µM. In addition, the TGI in test [7] turned out to be 7.59 µM; in [4], 9.14 µM; in test [8], 11.6 µM.
Take `O=C(CC(C(=O)O)N1CCOCC1)c1ccccc1` (stereo not drawn): the TGI was 27 µM in test [1]; 35.5 µM in test [2]; above 100 µM in test [10]; 35.7 µM in [3]; above 100 µM in [5]; 63 µM in test [6]. The TGI in test [7] was 34 µM; in test [4], 30.9 µM; in test [8], 86.9 µM.
Take `N#CC(=C=[N-])[n+]1ccc(Cl)cc1`: the TGI in test [1] was 31.2 µM; in test [2], above 100 µM; in test [3], 28.3 µM; in test [5] it was above 100 µM; in test [6], 86.6 µM; in [7] it was 30.6 µM. Further, the values for the TGI in test [4] and in [8] were 29.7 µM and 83 µM, respectively.
Consider `Cc1cccc(N2C(=O)/C(=C/c3ccc(N(CCC#N)CCC#N)cc3C)N=C2c2cc([N+](=O)[O-])ccc2Cl)c1`, for which the TGI in test [1], in test [2], in test [3], in test [5], in [6] and in [7] was above 100 µM throughout. Further, the TGI in test [4] and in [8] was above 100 µM throughout.
On to `C/C(=N/Nc1ccc([N+](=O)[O-])cc1[N+](=O)[O-])C(CC(C(=O)Nc1ccccc1C)/C(C)=N\Nc1ccc([N+](=O)[O-])cc1[N+](=O)[O-])C(=O)Nc1ccccc1C` (stereo not drawn), for which the TGI in test [1] was 26.4 µM; in test [3], 12.7 µM; in test [5] it was 64.6 µM; in test [6] it was 34 µM; in test [7], above 63.1 µM; in [4], 14 µM. Besides, in test [8], the TGI is 30.6 µM.
Turning to `Cc1csc(Nc2nc(-c3cccc(Cl)c3)nc(C(Cl)(Cl)Cl)n2)n1`, the GI50 is 7.83 µM in test [9]; 2.29 µM in test [1]; 14 µM in test [2]; 1.04 µM in [10]; 13.5 µM in test [3]; 1.06 µM in [5]. Besides, the GI50 was above 33.3 µM in test [7], 1.4 µM in test [4] and 1.27 µM in test [8]. For the same compound, the TGI in test [9] is above 33.3 µM; in test [1] it was above 33.3 µM; in test [2] it was above 33.3 µM; in test [10] it was 8.54 µM; in test [3], above 33.3 µM; in test [5], 5.27 µM. Moreover, the TGI in test [7] is above 33.3 µM; in [4], 19.9 µM; in test [8], 7.99 µM.
Take `Cc1ns/c(=N\C(=S)N(C)C)n1C`: the TGI in test [1], in [2], in test [3], in test [5], in test [6] and in test [7] was above 100 µM each time. Further, the TGI in test [4] and in test [8] was above 100 µM in each case.
With `CCN1CC2(C)CC[C@@H](OC)C34[C@@H]2[C@H](OC(C)=O)C2(OCO[C@@]25C[C@H](OC)C2C[C@]3(O)[C@@H]5[C@H]2O)[C@H]14`, the TGI in test [1], in test [3], in [5], in [7], in test [4] and in test [8] was above 100 µM in each case.
`COc1ccccc1NC(=O)C(=O)C1C(=O)Nc2ccccc2S1=O` (stereo not drawn): the TGI in [1], in [2], in test [3], in test [5], in [6] and in test [7] was above 100 µM each time. Further, the TGI in test [4] and in test [8] was above 100 µM in each case.
For the compound `CC(C)=C1CCC(CN2CCCC2)C1=O` (stereo not drawn), the TGI in test [1] is 31.6 µM; in test [2] it was 44.3 µM; in [3], 33.1 µM; in test [5] it was above 100 µM; in [6], above 100 µM; in [7] it was 37.2 µM. The TGI in test [8] was above 100 µM.
`COc1cc(CC(=O)c2ccc3c(c2)OCO3)cc(OC)c1OC`: the TGI in [1], in test [2], in [3], in test [5], in test [6] and in test [7] was above 100 µM throughout. Also, the TGI in test [4] and in test [8] was above 100 µM each time.

For the origin of these results see PubChem BioAssay (NCI).
